pEC50: −log10 of the molar value. Like-named read-outs stand apart in the source and are kept apart here.
Key:
[1] = biological target: T1, glutathione-S-transferase (GST) tagged LXRbeta LBD (ligand binding domain) (Homo sapiens, UniProt P55055); experiment: LanthaScreen TR-FRET Liver X Receptor Coactivator Assay, LXR beta; type: biochemical; conditions: for LXR beta actiivty at max dose: efficacy (% Emax) in relation to reference dual agonist T0901317; for pEC50: potency (Inflection Point), compound-induced co-activator recruitment, TR-FRET; for Emax: read-out: LXR beta actiivty at max dose, efficacy (% Emax) in relation to reference dual agonist T0901317
T1 construct: purchased Invitrogen pv4658
T1 sequence (P55055 222-460 limits assumed): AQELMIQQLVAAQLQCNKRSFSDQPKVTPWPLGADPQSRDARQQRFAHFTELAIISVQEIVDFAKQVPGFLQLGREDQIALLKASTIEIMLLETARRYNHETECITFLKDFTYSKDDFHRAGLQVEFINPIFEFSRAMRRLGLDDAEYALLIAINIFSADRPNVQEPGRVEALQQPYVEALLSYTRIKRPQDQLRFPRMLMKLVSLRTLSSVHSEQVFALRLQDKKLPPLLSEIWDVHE
Protocol: (§1) While running the LanthaScreen™ TR-FRET Liver X Receptor Coactivator Assay, LXR alpha-LBD or LXR beta-LBD was added to ligand test compounds followed by addition of a mixture of a fluorescein-labelled coactivator peptide and terbium-conjugated anti-GST antibody. After an incubation period at room temperature, TR-FRET (time-resolved fluorescence resonance energy transfer) was measured using a filter-based instrument capable of TR-FRET, e.g. PerkinElmer Envision.

[2] = biological target: T2, glutathione-S-transferase (GST) tagged LXRalpha LBD (ligand binding domain) (Homo sapiens, UniProt Q13133); experiment: biochemical; conditions: for LXR alpha actiivty at max dose: efficacy (% Emax) in relation to reference dual agonist T0901317
T2 construct: purchased Invitrogen pv4655
T2 sequence (Q13133 209-447 limits assumed): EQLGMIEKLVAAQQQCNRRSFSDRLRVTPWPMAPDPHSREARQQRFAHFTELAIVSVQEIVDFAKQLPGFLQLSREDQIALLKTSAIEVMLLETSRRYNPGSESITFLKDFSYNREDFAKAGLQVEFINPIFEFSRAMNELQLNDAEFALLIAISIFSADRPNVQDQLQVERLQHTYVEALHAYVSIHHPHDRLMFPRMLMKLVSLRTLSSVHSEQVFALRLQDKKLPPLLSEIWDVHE
Protocol: as §1

[3] = LXR alpha IP, potency (Inflection Point), compound-induced co-activator recruitment, TR-FRET
[4] = read-out: LXR alpha actiivty at max dose, efficacy (% Emax) in relation to reference dual agonist T0901317
[5] = potency (Inflection Point), compound-induced co-activator recruitment, TR-FRET

Compound | pEC50 ([1]; LXR beta IP) | Emax [1] | pEC50 [2, 3] | Emax [2, 4] | other results
4-(2-((1S,2R or 1R, 2S)- 2-(1-((R or S)-2-amino- 3,3,3-trifluoro-2- phenylpropanoyl) piperidin-4- yl)cyclopropyl)ethoxy)-2- chloro-N- methylbenzamide [Example 10-4] |  |  |  |  | LXR beta actiivty at max dose [1]: 147%; pEC50 ([1]; read-out: LXR beta IP): 8.10; LXR alpha actiivty at max dose [2]: 83%; pEC50 ([2]; potency (Inflection Point), compound-induced co-activator recruitment, TR-FRET, read-out: LXR alpha IP): 6.23
COc1cccc(C(O)(C(=O)N2CCC3(CCC(Oc4ccc(C(=O)N(C)C)c(Cl)c4)CC3)CC2)C(F)(F)F)c1 (single isomer, unassigned) [Example 1-1, 2-chloro-N,N-dimethyl-4-(3-((R or S)-3,3,3-trifluoro-2-hydroxy-2-(3-methoxyphenyl)propanoyl)-3-azaspiro[5.5]undecan-9-yloxy)benzamide] | 7.60 | 51% |  |  | pEC50 ([2]; LXR alpha IP): 6.18; Emax ([2]; read-out: LXR alpha actiivty at max dose): 22%
COc1cccc(C(O)(C(=O)N2CCC3(CCC(Oc4ccc(C(=O)N(C)C)c(Cl)n4)CC3)CC2)C(F)(F)F)c1 (single isomer, unassigned) [Example 1-2, 2-chloro-N,N-dimethyl-6-(3-((S or R)-3,3,3-trifluoro-2-hydroxy-2-(3-methoxyphenyl)propanoyl)-3-azaspiro[5.5]undecan-9-yloxy)nicotinamide] | 7.04 |  | 5.73 | 35% | LXR beta actiivty at max dose [1]: 120%
COc1cccc(C(O)(C(=O)N2CCC3(CCC(Oc4ccc(C(=O)N(C)C)c(Cl)n4)CC3)CC2)C(F)(F)F)c1 (single isomer, unassigned) [Example 1-3, 2-chloro-N,N-dimethyl-6-(3-((R or S)-3,3,3-trifluoro-2-hydroxy-2-(3-methoxyphenyl)propanoyl)-3-azaspiro[5.5]undecan-9-yloxy)nicotinamide] | 7.12 |  | 5.94 |  | LXR beta actiivty at max dose [1]: 84%; LXR alpha actiivty at max dose [2]: 21%
Cc1nc(OC2CCC3(CC2)CCN(C(=O)C(O)(c2cccc(OC4CC4)c2)C(F)(F)F)CC3)ccc1C(=O)N(C)C (single isomer, unassigned) [Example 2-1, 6-(3-((R or S)-2-(3-cyclopropoxyphenyl)-3,3,3-trifluoro-2-hydroxypropanoyl)-3-azaspiro[5.5]undecan-9-yloxy)-N,N,2-trimethylnicotinamide] | 6.85 | 46% |  | 0% | LXR alpha IP [2, 5]: No IP
CN(C)C(=O)c1ccc(OCCCCC2CCN(C(=O)C(O)(c3cccc(Cl)c3)C(F)(F)F)CC2)cc1Cl (single isomer, unassigned) [Example 3-2, (S or R)-2-chloro-4-(4-(1-(2-(3-chlorophenyl)-3,3,3-trifluoro-2-hydroxypropanoyl)piperidin-4-yl)butoxy)-N,N-dimethylbenzamide] | 8.22 | 79% | 6.89 | 37% | 
CN(C)C(=O)c1ccc(OCCCCC2CCN(C(=O)C(O)(c3cccc(F)c3)C(F)(F)F)CC2)cc1Cl (single isomer, unassigned) [Example 3-4, (R or S)-2-chloro-N,N-dimethyl-4-(4-(1-(3,3,3-trifluoro-2-(3-fluorophenyl)-2-hydroxypropanoyl)piperidin-4-yl)butoxy)benzamide] | 8.15 | 73% | 6.90 | 41% | 
CN(C)C(=O)c1ccc(OCCCCC2CCN(C(=O)C3(c4ccccc4)CCCO3)CC2)cc1Cl (single isomer, unassigned) [Example 3-5, (S or R)-2-chloro-N,N-dimethyl-4-(4-(1-(2-phenyl-tetrahydrofuran-2-carbonyl)piperidin-4-yl)butoxy)benzamide] | 7.04 | 54% |  | 0% | LXR alpha IP [2, 5]: No IP
CN(C)C(=O)c1ccc(OCCCCC2CCN(C(=O)C(O)(c3ccccc3)C(F)(F)F)CC2)cc1Cl (single isomer, unassigned) [Example 3-8, 2-chloro-N,N-dimethyl-4-(4-(1-(3,3,3-trifluoro-2-hydroxy-2-phenylpropanoyl)piperidin-4-yl)butoxy)benzamide] | 8.30 | 85% | 6.76 | 30% | 
CN(C)C(=O)c1ccc(OCCCCC2CCN(C(=O)C(O)(c3cccc(OC(F)(F)F)c3)C(F)(F)F)CC2)cc1Cl (single isomer, unassigned) [Example 3-9, (R or S)-2-chloro-N,N-dimethyl-4-(4-(1-(3,3,3-trifluoro-2-hydroxy-2-(3-(trifluoromethoxy)phenyl)propanoyl)piperidin-4-yl)butoxy)benzamide] | 7.82 | 64% | 6.54 | 17% | 
CN(C)C(=O)c1ccc(OCCCCC2CCN(C(=O)C(C)(O)c3ccccc3)CC2)cc1Cl (single isomer, unassigned) [Example 3-10, (S or R)-2-chloro-4-(4-(1-(2-hydroxy-2-phenylpropanoyl)piperidin-4-yl)butoxy)-N,N-dimethylbenzamide] | 6.45 | 55% |  | 5% | LXR alpha IP [2, 5]: No IP
CC(C)Oc1cccc(C(O)(C(=O)N2CCC(CCCCOc3ccc(C(=O)N(C)C)c(Cl)c3)CC2)C(F)(F)F)c1 (single isomer, unassigned) [Example 3-11, (S or R)-2-chloro-N,N-dimethyl-4-(4-(1-(3,3,3-trifluoro-2-hydroxy-2-(3-isopropoxyphenyl)propanoyl)piperidin-4-yl)butoxy)benzamide] | 8.05 | 80% | 6.21 | 21% | 
CCc1cccc(C(O)(C(=O)N2CCC(CCCCOc3ccc(C(=O)N(C)C)c(Cl)c3)CC2)C(F)(F)F)c1 (single isomer, unassigned) [Example 3-12, (R or S)-2-chloro-4-(4-(1-(2-(3-ethylphenyl)-3,3,3-trifluoro-2-hydroxypropanoyl)piperidin-4-yl)butoxy)-N,N-dimethylbenzamide] | 7.80 | 76% |  | 15% | LXR alpha IP [2, 5]: No IP
COc1cccc(C(O)(C(=O)N2CCC(CCCCOc3ccc(C(=O)N(C)C)c(Cl)c3)CC2)C(F)(F)F)c1 (single isomer, unassigned) [Example 3-13, (S or R)-2-chloro-N,N-dimethyl-4-(4-(1-(3,3,3-trifluoro-2-hydroxy-2-(3-methoxyphenyl)propanoyl)piperidin-4-yl)butoxy)benzamide] | 6.40 | 61% |  | 0% | LXR alpha IP [2, 5]: No IP
CN(C)C(=O)c1ccc(OCCCCC2CCN(C(=O)C(O)(c3ccccc3)C(F)(F)F)CC2)nc1Cl (single isomer, unassigned) [Example 3-16, (R or S)-2-chloro-N,N-dimethyl-6-(4-(1-(3,3,3-trifluoro-2-hydroxy-2-phenylpropanoyl)piperidin-4-yl)butoxy)nicotinamide] | 6.59 | 83% |  |  | 
CN(C)C(=O)c1ccc(OCCCCC2CCN(C(=O)C(O)(c3ccccc3)C(F)(F)F)CC2)nc1Cl (single isomer, unassigned) [Example 3-17, (S or R)-2-chloro-N,N-dimethyl-6-(4-(1-(3,3,3-trifluoro-2-hydroxy-2-phenylpropanoyl)piperidin-4-yl)butoxy)nicotinamide] | 8.10 |  |  |  | LXR beta actiivty at max dose [1]: 74%
CN(C)C(=O)c1ccc(OCCCCC2CCN(C(=O)C(O)(c3cccc(-c4cnn(C)c4)c3)C(F)(F)F)CC2)cc1Cl (single isomer, unassigned) [Example 3-19, (R or S)-2-chloro-N,N-dimethyl-4-(4-(1-(3,3,3-trifluoro-2-hydroxy-2-(3-(1-methyl-1H-pyrazol-4-yl)phenyl)propanoyl)piperidin-4-yl)butoxy)benzamide] | 6.91 | 24% | 5.94 | 25% | 
CN(C)C(=O)c1ccc(OCCCC2CCN(C(=O)[C@](O)(c3ccccc3)C(F)(F)F)CC2)nc1Cl (single isomer, unassigned) [Example 3-20] | 7.60 | 74% | 5.64 | 28% | 
CCc1nc(OCCCCC2CCN(C(=O)C(O)(c3ccccc3)C(F)(F)F)CC2)ccc1C(=O)N(C)C (stereo not shown) [Example 5-2, 2-ethyl-N,N-dimethyl-6-(4-(1-(3,3,3-trifluoro-2-hydroxy-2-phenylpropanoyl)piperidin-4-yl)butoxyl)nicotinamide] | 7.20 | 77% |  |  | 

— patent publication US11655216B2 (priority 2016, dated 2023)
